Measured values reported in publication PMC7669869, “AdipoR1/AdipoR2 dual agonist recovers nonalcoholic steatohepatitis and related fibrosis via endoplasmic reticulum-mitochondria axis” (Nature Communications, 2020).
“And” between values parts separate entries of the source, which are not always exact repeats. Equal entries are not always repeated. Non-standard residues stand in square brackets, D forms with d. Residues, ends and D or L forms follow the SMILES beside them. Nva = CCC[C@H](N)C(=O)O

Legend:
AdipoR1 = biological target: T1, AdipoR1 (Homo sapiens, UniProt Q96A54); assay: Competition binding assay vs globular adiponectin (western blot), AdipoR1 overexpression cells; details: JT003 4 h, then 50 μg ml−1 gAd155–161 4 h, in words
T1 construct: His; host or cells: HEK293
T1 sequence (Q96A54 1-375): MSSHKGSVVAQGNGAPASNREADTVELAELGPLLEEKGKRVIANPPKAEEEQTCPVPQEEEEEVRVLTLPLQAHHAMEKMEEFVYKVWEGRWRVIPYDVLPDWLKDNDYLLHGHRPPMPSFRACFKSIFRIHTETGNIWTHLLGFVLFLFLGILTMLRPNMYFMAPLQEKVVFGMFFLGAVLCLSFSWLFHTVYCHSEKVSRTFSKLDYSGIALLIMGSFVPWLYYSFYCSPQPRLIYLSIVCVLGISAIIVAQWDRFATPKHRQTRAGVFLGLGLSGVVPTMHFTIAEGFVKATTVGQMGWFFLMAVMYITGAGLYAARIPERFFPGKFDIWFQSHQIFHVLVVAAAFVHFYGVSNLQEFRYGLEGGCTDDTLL
Method: Different concentration of JT003 were incubated with AdipoR1 or AdipoR2 overexpression HEK293 cell line for 4 h. After that, 50 μg ml^−1 gAd155–161 were added for another 4 h incubation. The binding of gAd155–161 to the cells were measured via western blot assay.

[1] = test system: gene expression in PA induced HepG2 cells; assay: Quantitative RT-PCR in PA induced HepG2 cells; type: cell-based, human; details: for IL-1a mRNA, relative expression, Supplementary Figure 11a / IL-6 mRNA, relative expression, Supplementary Figure 11a / IL-8 mRNA, relative expression, Supplementary Figure 11a / TNFa mRNA, relative expression, Supplementary Figure 11a: PA induced HepG2 cells, PA+JT003
Method: (§1) Hepatoma carcinoma cell line HepG2 and human hepatic activated stellate cell line LX2 used in this study were purchased from Type Culture Collection of the Chinese Academy of Sciences (Shanghai, China). Cells were cultured in Dulbecco’s modified Eagle’s medium (DMEM) with 10% fetal bovine serum (FBS), supplemented with 1% penicillin–streptomycin (ThermoFisher Scientific, USA) at 37 °C in a humidified atmosphere of 5% CO2. In PA (Sigma, USA) induced lipid accumulation cell model, HepG2 cells were seeded into a 6-well plate at 5E5 cells per well. 0.25 mM PA and/or 200 μM candidate peptides were co-incubated with cells for 24 h. Then Oil Red O staining was performed to evaluate the accumulation of lipid droplets. BSA (Sigma, USA) was used in this experiment as the negative control. For LX2 cells, 2E5 cells were seeded, then the adherent cells were exposed to 200 μM candidate peptides for another 48 h. Next, the cell protein was obtained and western blotting was performed. Candidate peptides were diluted in DMEM in a stock concentration of 1 M.
(§2) Liver total RNA was extracted by using Trizol reagent following the manufacture’s instruction (TransGen Biotech, China). The concentration of RNA was measured by Nanodrop 2000 (ThermoFisher Scientific, USA). cDNA was transcribed from 10ug total RNA with First Strand cDNA synthesis Super Mix (TransGen Biotech, China). The cDNA was diluted 1/50 and 1.0 uL were used as a template for qPCR. qPCR was performed with SYBR Green qPCR Super Mix (TransGen Biotech, China) in the Light Cycler 480 Real-Time PCR System (Roche, Swiss). Reference gene β-actin was used for data normalization. mRNA expression was analyzed with specific primers listed in Supplementary Table 2.

[2] = test system: gene expression in LX2 cells; assay: Quantitative RT-PCR in LX2 cells; type: cell-based, human; parameters: key to Vimentin mRNA / CTGF mRNA / OPN mRNA / IL-6 mRNA / TNF mRNA / IL-1 mRNA / TIMP2 mRNA / MMP2 mRNA / MMP9 mRNA / MMP12 mRNA / MMP13 mRNA: relative mRNA expression normalized to β-actin
Method: as §1, §2

[3] = Figure 6a left, LX2 cells, JT003 vs Vehicle, single replicates, n = 4
[4] = Figure 6a right, LX2 cells, JT003 vs Vehicle, single replicates, n = 4

## CCC[C@H](NC(=O)[C@@H]1CCCN1)C(=O)N[C@@H](CC(C)C)C(=O)N[C@@H](Cc1ccc(O)cc1)C(=O)N[C@@H](Cc1ccc(O)cc1)C(=O)N[C@@H](Cc1ccccc1)C(=O)N[C@@H](C)C(N)=O [JT003] (H-P[Nva]LYYFA-NH2)
AdipoR1
  competitive binding to globular adiponectin, AdipoR1 overexpression cells: more JT003 cause less globular adiponectin binding
[1]; HepG2, 0.25 mM PA + 200 μM JT003, in words
  lipogenesis (FAS, SREBP-1C, SREBP-2 and ACC1) and fatty acid β-oxidation (ACOX, LCAD and PDK4) genes: meliorated notably
[1]; PA induced HepG2, 200 μM JT003, in words
  inflammatory factors and ER-mitochondrial axis dysfunction (mRNA): meliorated notably
[1]; replicate 1
  IL-1a mRNA, relative expression, Supplementary Figure 11a: 1.056
  IL-6 mRNA, relative expression, Supplementary Figure 11a: 0.3197
  IL-8 mRNA, relative expression, Supplementary Figure 11a: 0.8479
  TNFa mRNA, relative expression, Supplementary Figure 11a: 0.6008
[1]; replicate 2
  IL-1a mRNA, relative expression, Supplementary Figure 11a: 0.8256
  IL-6 mRNA, relative expression, Supplementary Figure 11a: 0.3197
  IL-8 mRNA, relative expression, Supplementary Figure 11a: 0.8134
  TNFa mRNA, relative expression, Supplementary Figure 11a: 0.8039
[1]; replicate 3
  IL-1a mRNA, relative expression, Supplementary Figure 11a: 0.9853
  IL-6 mRNA, relative expression, Supplementary Figure 11a: 0.4368
  IL-8 mRNA, relative expression, Supplementary Figure 11a: 0.8277
  TNFa mRNA, relative expression, Supplementary Figure 11a: 0.7928
[1]; replicate 4
  IL-1a mRNA, relative expression, Supplementary Figure 11a: 0.9145
  IL-6 mRNA, relative expression, Supplementary Figure 11a: 0.3522
  IL-8 mRNA, relative expression, Supplementary Figure 11a: 0.8368
  TNFa mRNA, relative expression, Supplementary Figure 11a: 0.7583
[2]; [3]
  MMP2 mRNA: 1.293 and 0.7704 and 1.1819 and 1.0719
  MMP9 mRNA: 2.131 and 1.538 and 2.384 and 1.884
  MMP12 mRNA: 1.826 and 1.7 and 2.413 and 1.763
  MMP13 mRNA: 2.514 and 2.381 and 3.247 and 2.347
  TIMP2 mRNA: 0.8037 and 0.8728 and 0.6883 and 0.7883
[2]; [4]
  CTGF mRNA: 0.7417 and 0.5541 and 0.6479 and 0.621
  IL-1 mRNA: 0.9119 and 0.6477 and 0.5242 and 0.686
  IL-6 mRNA: 0.6335 and 0.6954 and 0.6645 and 0.66
  OPN mRNA: 0.8619 and 0.7815 and 0.9867 and 0.8941
  TNF mRNA: 0.6949 and 0.8263 and 0.7906 and 0.7334
  Vimentin mRNA: 0.6199 and 0.6972 and 0.6586 and 0.5779
[2]; JT003 vs Vehicle, replicate 1
  IL-1a mRNA, relative expression, Supplementary Figure 15a: 0.9119
  IL-6 mRNA, relative expression, Supplementary Figure 15a: 1.034
  TNFa mRNA, relative expression, Supplementary Figure 15a: 0.6949
  iNOS mRNA, relative expression, Supplementary Figure 15a: 1.242
[2]; JT003 vs Vehicle, replicate 2
  IL-1a mRNA, relative expression, Supplementary Figure 15a: 0.5774
  IL-6 mRNA, relative expression, Supplementary Figure 15a: 0.932
  TNFa mRNA, relative expression, Supplementary Figure 15a: 0.8263
  iNOS mRNA, relative expression, Supplementary Figure 15a: 1.188
[2]; JT003 vs Vehicle, replicate 3
  IL-1a mRNA, relative expression, Supplementary Figure 15a: 0.5946
  IL-6 mRNA, relative expression, Supplementary Figure 15a: 0.9828
  TNFa mRNA, relative expression, Supplementary Figure 15a: 0.7606
  iNOS mRNA, relative expression, Supplementary Figure 15a: 0.8438
[2]; JT003 vs Vehicle, replicate 4
  IL-1a mRNA, relative expression, Supplementary Figure 15a: 0.706
  IL-6 mRNA, relative expression, Supplementary Figure 15a: 0.9774
  TNFa mRNA, relative expression, Supplementary Figure 15a: 0.7834
  iNOS mRNA, relative expression, Supplementary Figure 15a: 0.9516
[2]; LX2, 200 μM JT003, in words
  HSC activation factors (Vimentin, CTGF, OPN, IL-6, TNFα and IL-1α): significantly suppressed
  expression of ER-mitochondrial function-related markers: improved
  expression of genes involved in ECM accumulation (TIMP1) and degradation (MMP9, MMP12, MMP13): notably altered
  inflammation related genes (TNFα, IL-1α, IL-6 and iNOS): suppressed
